Experimental data taken from patent US6962931B2, “Self-emulsifying formulations of cholesteryl ester transfer protein inhibitors” (Pfizer Inc., priority 2001, dated 2005).

Tests used:
[1] = Microsolubility estimate by repeated addition of vehicle; assay type: physicochemical; conditions: thermodynamic from solid, read-out: Microsolubility
Description: For CETP inhibitors where quantities were limited, an estimate of solubility was obtained by addition of vehicle to a known quantity of the compound and mixing in an ultrasonicator bath for 90 minutes, followed by overnight equilibration at ambient temperature. Addition of vehicle was repeated until a solution was achieved.
For CETP inhibitors where quantities were limited or the samples were amorphous solids, an estimate of solubility was obtained by addition of vehicle to a known quantity of the compound and mixing in an ultrasonicator bath for 90 minutes, followed by overnight equilibration at ambient temperature. Addition of vehicle was repeated until a solution was achieved. From the total volume of vehicle added to solubilize the CETP inhibitor compound, the solubility value, or so-called microsolubility, was calculated by the equation: Weight of sample (mgA)/vehicle volume (mL)=Microsolubility (mgA/mL)

[2] = Equilibrium solubility in excipients, vehicles and emulsion preconcentrates; assay type: physicochemical; conditions: equilibrium
Description: The solubility of CETP inhibitors in excipients and in formulations was determined by adding an excess of compound to the medium in question. The mixture was agitated by rotation over a period of days at ambient temperature until the concentration in solution had reached an equilibrium as judged by similar measurements for consecutive time points. Concentrations were measured by filtration of aliquots with a PTFE syringe filter and assay by HPLC as described in Example 11.
The solubility of crystalline CETP inhibitors in representative vehicles was determined by adding an excess of compound to the vehicle in question. The mixture was agitated by rotation over a period of days at ambient temperature until the concentration in solution had reached equilibrium as judged by similar measurements for consecutive time points. Concentrations were measured by filtration of aliquots with a PTFE syringe filter and assayed by HPLC.
The concentrations of CETP inhibitor in each vehicle were assayed at intervals by dilution of aliquots into acetonitrile and gradient HPLC analysis on a Water Symmetry C-8 column (3.9×150 mm, 5 micron) at 30° C. at a flow rate of 1 mL/min. […] The detection method was UV absorbance at 210 nm.

[3] = PK in rat, oils or preformed emulsions by oral gavage; design: species or system Sprague Dawley rats; conditions: Sprague-Dawley, in vivo
From the text: Emulsions prepared from olive oil/surfactant provided the best results.

PK in monkeys = assay type: in vivo, cynomologous monkeys
From the text: Use of an emulsion prepared from crystalline (ethanolate) drug allowed comparible exposures to be achieved to those for more soluble amorphous drug in Miglyol® alone. Excellent dose proportionality was also obtained.

## CCOC(=O)N1c2ccc(C(F)(F)F)cc2[C@@H](N(Cc2cc(C(F)(F)F)cc(C(F)(F)F)c2)C(=O)OC)C[C@H]1CC [Compound A, [2R,4S] 4-[(3,5-bis-trifluoromethyl-benzyl)-methoxycarbonyl-amino]-2-ethyl-6-trifluoromethyl-3,4-dihydro-2H-quinoline-1-carboxylic acid ethyl ester]
[1]; Capmul MCM, oil or lipid
  Solubility: > 300 mg/mL
[1]; Cotton oil, oil or lipid
  Solubility: < 75 mg/mL
[1]; Crodamol GTCC, oil or lipid
  Solubility: < 75 mg/mL
[1]; Glycerin, organic solvent or mixture
  Solubility: < 75 mg/mL
[1]; Incromega TG2671, oil or lipid
  Solubility: < 75 mg/mL
[1]; Linoleic acid, oil or lipid
  Solubility: < 60 mg/mL
[1]; Miglyol 810, oil or lipid
  Solubility: < 100 mg/mL
[1]; Miglyol 812, oil or lipid
  Solubility: > 300 mg/mL
[1]; Olive oil, oil or lipid
  Solubility: > 300 mg/mL
[1]; Safflower oil, oil or lipid
  Solubility: > 300 mg/mL
[1]; mineral oil, oil or lipid
  Solubility: < 75 mg/mL
[1]; oil or lipid
  Solubility: < 75 mg/mL
[1]; propylene glycol, organic solvent or mixture
  Solubility: < 75 mg/mL
[2]; ambient temperature, vehicle Water
  Solubility: <0.00004 mgA/ml
[2]; Miglyol 812/EtOH/Cremophor EL (76/4/20)
  Solubility: 89 mgA/ml
[2]; Miglyol 812/Ethyl lactate/Cremophor EL 30/50/20
  Solubility: 256 mgA/ml
[2]; Miglyol 812/Ethyl lactate/Cremophor EL 40/40/20
  Solubility: 221 mgA/ml
[2]; Miglyol 812/Ethyl lactate/Cremophor EL 50/30/20
  Solubility: 196 mgA/ml
[2]; Miglyol 812/Ethyl lactate/Cremophor EL 60/20/20
  Solubility: 143 mgA/ml
[2]; Miglyol 812/Ethyl lactate/Cremophor EL 65/15/20
  Solubility: 120 mgA/ml
[2]; Miglyol 812/Ethyl lactate/Cremophor EL 70/10/20
  Solubility: 99 mgA/ml
[2]; Miglyol 812/Ethyl lactate/Cremophor EL 72/8/20
  Solubility: 94 mgA/ml
[2]; Miglyol 812/Ethyl lactate/Labrasol (72/8/20)
  Solubility: 98 mgA/ml
[2]; Miglyol 812/Ethyl lactate/Tagat TO (72/8/20)
  Solubility: 87 mgA/ml
[2]; Miglyol 812/Peppermint Oil/Cremophor EL (72/8/20)
  Solubility: 72 mgA/ml
[2]; Miglyol 812/Propylene carbonate/Cremophor EL 30/50/20
  Solubility: 228 mgA/ml
[2]; Miglyol 812/Propylene carbonate/Cremophor EL 40/40/20
  Solubility: 209 mgA/ml
[2]; Miglyol 812/Propylene carbonate/Cremophor EL 55/25/20
  Solubility: 158 mgA/ml
[2]; Miglyol 812/Propylene carbonate/Cremophor EL 72/8/20
  Solubility: 108 mgA/ml
[2]; Miglyol 812/Propylene carbonate/Labrasol (72/8/20)
  Solubility: 116 mgA/ml
[2]; Miglyol 812/Propylene carbonate/Tagat TO (72/8/20)
  Solubility: 111 mgA/ml
[2]; Miglyol 812/Triacetin/Cremophor EL 30/50/20
  Solubility: 198 mgA/ml
[2]; Miglyol 812/Triacetin/Cremophor EL 40/40/20
  Solubility: 183 mgA/ml
[2]; Miglyol 812/Triacetin/Cremophor EL 50/30/20
  Solubility: 158 mgA/ml
[2]; Miglyol 812/Triacetin/Cremophor EL 60/20/20
  Solubility: 133 mgA/ml
[2]; Miglyol 812/Triacetin/Cremophor EL 65/15/20
  Solubility: 111 mgA/ml
[2]; Miglyol 812/Triacetin/Cremophor EL 72/8/20
  Solubility: 94 mgA/ml
[2]; vehicle Capmul MCM
  Solubility: 41 mgA/ml
[2]; vehicle Cremophor EL
  Solubility: 20 mgA/ml
[2]; vehicle Dimethylisosorbide
  Solubility: 439 mgA/ml
[2]; vehicle Ethyl lactate
  Solubility: 400 mgA/ml
[2]; vehicle Glycofurol
  Solubility: 99 mgA/ml
[2]; vehicle Labrafil M 1944
  Solubility: 26 mgA/ml
[2]; vehicle Labrafil M 2125
  Solubility: 27 mgA/ml
[2]; vehicle Labrasol
  Solubility: 41 mgA/ml
[2]; vehicle Lauroglycol FCC
  Solubility: 70 mgA/ml
[2]; vehicle Maisine 35-1
  Solubility: 9 mgA/ml
[2]; vehicle Miglyol 812
  Solubility: 65 mgA/ml
[2]; vehicle Miglyol 812/Capmul MCM (80/20)
  Solubility: 74 mgA/ml
[2]; vehicle Miglyol 812/Capmul MCM/Polysorbate 80 (20/60/20)
  Solubility: 63 mgA/ml
[2]; vehicle Miglyol 812/Capmul MCM/Polysorbate 80 (40/40/20)
  Solubility: 58 mgA/ml
[2]; vehicle Miglyol 812/Cremophor EL 80/20
  Solubility: 68 mgA/ml
[2]; vehicle Miglyol 812/Labrafil M 1944 (80/20)
  Solubility: 59 mgA/ml
[2]; vehicle Miglyol 812/Labrafil M 2125 (80/20)
  Solubility: 57 mgA/ml
[2]; vehicle Miglyol 812/Labrasol (80/20)
  Solubility: 69 mgA/ml
[2]; vehicle Miglyol 812/Peppermint oil (80/20)
  Solubility: 93 mgA/ml
[2]; vehicle Miglyol 812/Peppermint oil (90/10)
  Solubility: 79 mgA/ml
[2]; vehicle Miglyol 812/Tagat TO (80/20)
  Solubility: 58 mgA/ml
[2]; vehicle Miglyol 812/propylene carbonate/Cremophor EL (60/20/20)
  Solubility: 146 mgA/ml
[2]; vehicle Miglyol 812/triacetin (90/10), not completely miscible
  Solubility: 106 mgA/ml
[2]; vehicle N-methyl-2-pyrrolidone
  Solubility: 813 mgA/ml
[2]; vehicle Oleic acid
  Solubility: 8.5 mgA/ml
[2]; vehicle Olive oil
  Solubility: 17 mgA/ml
[2]; vehicle Olive oil/Capmul MCM (80/20)
  Solubility: 23 mgA/ml
[2]; vehicle Olive oil/Peppermint oil (90/10)
  Solubility: 25 mgA/ml
[2]; vehicle Peceol
  Solubility: 10 mgA/ml
[2]; vehicle Plurol Oleique CC 497
  Solubility: 17 mgA/ml
[2]; vehicle Pluronic L-44
  Solubility: 36 mgA/ml
[2]; vehicle Polysorbate 80 (Tween 80)
  Solubility: 23 mgA/ml
[2]; vehicle Propylene carbonate
  Solubility: 227 mgA/ml
[2]; vehicle Tagat TO (Polyoxyethylene glycerol trioleate)
  Solubility: 32 mgA/ml
[2]; vehicle Transcutol P
  Solubility: 174 mgA/ml
[2]; vehicle Triacetin
  Solubility: 235 mgA/ml
[2]; vehicle Triethyl citrate
  Solubility: 240 mgA/ml
[2]; vehicle peppermint oil
  Solubility: 266 mgA/ml
[3]; 100 mg/kg, crystalline ethanolate, Miglyol/Cremophor/0.5% HPMCAS 40/10/50, 100 mg/kg
  Cmax: 1600 ng/mL
[3]; 100 mg/kg, crystalline ethanolate, Miglyol/Cremophor/0.5% HPMCAS 40/10/50, 100 mg/kg, Tlast = 24 hr
  AUC(0-t): 15000 ng·h/mL
[3]; 100 mg/kg, crystalline ethanolate, Miglyol/Cremophor/water 40/10/50, 100 mg/kg, Tlast = 24 hr
  AUC(0-t): 23000 ng·h/mL
[3]; 100 mg/kg, crystalline ethanolate, Miglyol/Cremophor/water 40/10/50, 100 mg/kg, conc. in oil 100 mg/mL
  Cmax: 1900 ng/mL
[3]; 100 mg/kg, crystalline ethanolate, Olive oil/Cremophor 80/20, 100 mg/kg
  Cmax: 3600 ng/mL
[3]; 100 mg/kg, crystalline ethanolate, Olive oil/Cremophor 80/20, 100 mg/kg, Tlast = 24 hr
  AUC(0-t): 45000 ng·h/mL
[3]; 100 mg/kg, crystalline ethanolate, Olive oil/Cremophor/water 40/10/50, 100 mg/kg, Tlast = 9 hr
  AUC(0-t): 33000 ng·h/mL
[3]; 100 mg/kg, crystalline ethanolate, Olive oil/Cremophor/water 40/10/50, 100 mg/kg, conc. in oil 20 mg/mL
  Cmax: 6200 ng/mL
[3]; 300 mg/kg, amorphous anhydrous, Olive oil
  Cmax: 7300 ng/mL
[3]; 300 mg/kg, amorphous anhydrous, Olive oil, Tlast = 24 hr
  AUC(0-t): 50000 ng·h/mL
[3]; 375 mg/kg, crystalline ethanolate, Olive oil/caprylic acid/Cremophor/water 10/30/10/50, 375 mg/kg
  Cmax: 4100 ng/mL
[3]; 375 mg/kg, crystalline ethanolate, Olive oil/caprylic acid/Cremophor/water 10/30/10/50, 375 mg/kg, Tlast = 9 hr
  AUC(0-t): 21000 ng·h/mL
[3]; 500 mg/kg, crystalline ethanolate, Miglyol
  Cmax: 2100 ng/mL
[3]; 500 mg/kg, crystalline ethanolate, Miglyol, Tlast = 24 hr
  AUC(0-t): 27000 ng·h/mL
[3]; 500 mg/kg, crystalline ethanolate, Miglyol/Cremophor/water 40/10/50, 500 mg/kg, Tlast = 9 hr
  AUC(0-t): 18000 ng·h/mL
[3]; 500 mg/kg, crystalline ethanolate, Miglyol/Cremophor/water 40/10/50, 500 mg/kg, conc. in oil 100 mg/mL
  Cmax: 4600 ng/mL
[3]; 625 mg/kg, crystalline ethanolate, Olive oil/caprylic acid/triacetin/Cremophor/water 10/15/15/10/50, 625 mg/kg
  Cmax: 4800 ng/mL
[3]; 625 mg/kg, crystalline ethanolate, Olive oil/caprylic acid/triacetin/Cremophor/water 10/15/15/10/50, 625 mg/kg, Tlast = 9 hr
  AUC(0-t): 26000 ng·h/mL
PK in monkeys; crystalline ethanolate, Olive oil/Cremophor/water 40/10/50, 20 mg/kg, 20 mg/kg
  Cmax: 160 ng/mL
PK in monkeys; monkey, in vivo, oral, 20 mg/kg, crystalline ethanolate, Olive oil/Cremophor/water 40/10/50, 20 mg/kg, read-out: Cmax
  Cmax: 100 ng/mL
PK in monkeys; monkey, in vivo, oral, 50 mg/kg, crystalline ethanolate, Miglyol/Cremophor/water 40/10/50, 50 mg/kg (BID)
  AUC: 13000 to 15000 ng·h/mL
PK in monkeys; monkey, in vivo, oral, 50 mg/kg, crystalline ethanolate, Miglyol/Cremophor/water 40/10/50, 50 mg/kg (BID), read-out: Cmax
  Cmax: 800 to 1100 ng/mL
PK in monkeys; monkey, in vivo, oral, 100 mg/kg, amorphous anhydrous, Miglyol
  AUC: ~29000 ng·h/mL
PK in monkeys; monkey, in vivo, oral, 100 mg/kg, amorphous anhydrous, Miglyol, 100 mg/kg, read-out: Cmax
  Cmax: ~1600 ng/mL
PK in monkeys; monkey, in vivo, oral, 100 mg/kg, crystalline ethanolate, Miglyol, 100 mg/kg, read-out: Cmax
  Cmax: ~170 ng/mL
PK in monkeys; monkey, in vivo, oral, 100 mg/kg, crystalline ethanolate, Miglyol/Cremophor/water 40/10/50, 100 mg/kg (BID)
  AUC: 24000 to 29000 ng·h/mL
PK in monkeys; monkey, in vivo, oral, 100 mg/kg, crystalline ethanolate, Miglyol/Cremophor/water 40/10/50, 100 mg/kg (BID), read-out: Cmax
  Cmax: 1600 to 2300 ng/mL
PK in monkeys; monkey, in vivo, oral, 100 mg/kg, crystalline ethanolate, Miglyol/Cremophor/water 40/10/50, 100 mg/kg, read-out: Cmax
  Cmax: 400 to 1800 ng/mL
